Tested on: MV-4-11 cells
Assay: Gene expression microarray analysis (Affymetrix PrimeView) and GSEA
Format: cell-based, human
Set-up: RFU PODN (11730768_x_at) / Fold change /veh PODN (11730768_x_at) / RFU LINC00158 (11744669_a_at) / Fold change /veh LINC00158 (11744669_a_at) / RFU DUSP10 (11751237_a_at) / Fold change /veh DUSP10 (11751237_a_at) / RFU ID3 (11757404_x_at) / Fold change /veh ID3 (11757404_x_at) / RFU PLEKHG5 (11737974_s_at) / Fold change /veh PLEKHG5 (11737974_s_at) / RFU LRRC4B (11730491_at) / Fold change /veh LRRC4B (11730491_at) / RFU GIMAP4 (11747438_a_at) / Fold change /veh GIMAP4 (11747438_a_at) / RFU KRT8 (11758183_x_at) / Fold change /veh KRT8 (11758183_x_at) / RFU CNN1 (11734310_a_at) / Fold change /veh CNN1 (11734310_a_at) / RFU VPS37D (11726825_at) / Fold change /veh VPS37D (11726825_at) / RFU C10orf10 (11716522_x_at) / Fold change /veh C10orf10 (11716522_x_at) / RFU KIR2DL2 /// KIR2DL4 /// KIR2DL5A /// KIR2DL5B /// KIR2DS1 /// KIR2DS2 /// KIR2DS3 /// KIR2DS4 /// KIR3DL3 /// KIR3DL3 /// KIR3DS1 (11738374_at) / Fold change /veh KIR2DL2 /// KIR2DL4 /// KIR2DL5A /// KIR2DL5B /// KIR2DS1 /// KIR2DS2 /// KIR2DS3 /// KIR2DS4 /// KIR3DL3 /// KIR3DL3 /// KIR3DS1 (11738374_at) / RFU C1QL1 (11718748_at) / Fold change /veh C1QL1 (11718748_at) / RFU TMPRSS4 (11747572_a_at) / Fold change /veh TMPRSS4 (11747572_a_at) / RFU HAMP (11756126_x_at) / Fold change /veh HAMP (11756126_x_at) / RFU RNFT2 (11725882_a_at) / Fold change /veh RNFT2 (11725882_a_at) / RFU NR4A2 (11747474_a_at) / Fold change /veh NR4A2 (11747474_a_at) / RFU ABCC12 (11746883_a_at) / Fold change /veh ABCC12 (11746883_a_at) / RFU TMEM136 (11760407_x_at) / Fold change /veh TMEM136 (11760407_x_at) / RFU CLDN22 /// WWC2 (11732394_at) / Fold change /veh CLDN22 /// WWC2 (11732394_at) / RFU HLA-DPB1 (11760878_x_at) / Fold change /veh HLA-DPB1 (11760878_x_at) / RFU SPINT1 (11716480_a_at) / Fold change /veh SPINT1 (11716480_a_at) / RFU GAP43 (11754022_s_at) / Fold change /veh GAP43 (11754022_s_at) / RFU A4GNT (11735810_at) / Fold change /veh A4GNT (11735810_at) / RFU PRB3 (11715151_x_at) / Fold change /veh PRB3 (11715151_x_at) / RFU TUBB4B (11761932_at) / Fold change /veh TUBB4B (11761932_at) / RFU CAPN14 (11732068_a_at) / Fold change /veh CAPN14 (11732068_a_at) / RFU TMCC2 (11721928_a_at) / Fold change /veh TMCC2 (11721928_a_at) / RFU IRGQ (11745062_a_at) / Fold change /veh IRGQ (11745062_a_at) / RFU FAM174B (11720279_a_at) / Fold change /veh FAM174B (11720279_a_at) / RFU TMPRSS4 (11748680_a_at) / Fold change /veh TMPRSS4 (11748680_a_at) / RFU FAM212B (11763350_a_at) / Fold change /veh FAM212B (11763350_a_at) / RFU PLEKHG5 (11743358_a_at) / Fold change /veh PLEKHG5 (11743358_a_at) / RFU ZSCAN30 (11745921_a_at) / Fold change /veh ZSCAN30 (11745921_a_at) / RFU CMKLR1 (11741424_a_at) / Fold change /veh CMKLR1 (11741424_a_at) / RFU LOC101060620 /// MAPK8IP1 (11723275_at) / Fold change /veh LOC101060620 /// MAPK8IP1 (11723275_at) / RFU SPTSSB (11747773_x_at) / Fold change /veh SPTSSB (11747773_x_at) / RFU PRSS12 (11739890_at) / Fold change /veh PRSS12 (11739890_at) / RFU BIN1 (11741810_x_at) / Fold change /veh BIN1 (11741810_x_at) / RFU WNT11 (11732464_a_at) / Fold change /veh WNT11 (11732464_a_at) / RFU C10orf10 (11716521_a_at) / Fold change /veh C10orf10 (11716521_a_at) / RFU C5orf56 (11738089_at) / Fold change /veh C5orf56 (11738089_at) / RFU CYB561 (11721691_x_at) / Fold change /veh CYB561 (11721691_x_at) / RFU ANKRD19P (11752326_a_at) / Fold change /veh ANKRD19P (11752326_a_at) / RFU OR2T12 /// OR2T33 /// OR2T8 (11738714_s_at) / Fold change /veh OR2T12 /// OR2T33 /// OR2T8 (11738714_s_at) / RFU VCAN (11748164_a_at) / Fold change /veh VCAN (11748164_a_at) / RFU JSRP1 (11732532_at) / Fold change /veh JSRP1 (11732532_at) / RFU KRTAP10-11 (11738290_x_at) / Fold change /veh KRTAP10-11 (11738290_x_at) / RFU MYO3A (11730013_a_at) / Fold change /veh MYO3A (11730013_a_at) / RFU EBF3 (11725865_a_at) / Fold change /veh EBF3 (11725865_a_at) / RFU CAMK2N1 (11719241_x_at) / Fold change /veh CAMK2N1 (11719241_x_at) / RFU C5orf56 (11738088_a_at) / Fold change /veh C5orf56 (11738088_a_at) / RFU OLFML3 (11715873_a_at) / Fold change /veh OLFML3 (11715873_a_at) / RFU LOC100653217 /// NTM (11731650_a_at) / Fold change /veh LOC100653217 /// NTM (11731650_a_at) / RFU MAPK11 (11762145_a_at) / Fold change /veh MAPK11 (11762145_a_at) / RFU FIZ1 (11724087_x_at) / Fold change /veh FIZ1 (11724087_x_at) / RFU OASL (11726364_x_at) / Fold change /veh OASL (11726364_x_at) / RFU SOX15 (11748057_x_at) / Fold change /veh SOX15 (11748057_x_at) / RFU CD79A (11719716_a_at) / Fold change /veh CD79A (11719716_a_at) / RFU HIST1H1D (11736915_at) / Fold change /veh HIST1H1D (11736915_at) / RFU CASKIN2 (11723855_a_at) / Fold change /veh CASKIN2 (11723855_a_at) / RFU LOC730098 (11760151_x_at) / Fold change /veh LOC730098 (11760151_x_at) / RFU OR4N2 (11742367_at) / Fold change /veh OR4N2 (11742367_at) / RFU PRRT2 (11749266_a_at) / Fold change /veh PRRT2 (11749266_a_at) / RFU SNX32 (11753110_a_at) / Fold change /veh SNX32 (11753110_a_at) / RFU CDHR5 (11726645_a_at) / Fold change /veh CDHR5 (11726645_a_at) / RFU RCAN1 (11760418_a_at) / Fold change /veh RCAN1 (11760418_a_at) / RFU FAM167A (11723789_a_at) / Fold change /veh FAM167A (11723789_a_at) / RFU FAM26E (11764081_at) / Fold change /veh FAM26E (11764081_at) / RFU ISYNA1 (11749810_s_at) / Fold change /veh ISYNA1 (11749810_s_at) / RFU ACY1 (11761880_at) / Fold change /veh ACY1 (11761880_at) / RFU 11764098_at / Fold change /veh 11764098_at / RFU SAMD14 (11745864_x_at) / Fold change /veh SAMD14 (11745864_x_at) / RFU NPB (11741838_a_at) / Fold change /veh NPB (11741838_a_at) / RFU TMPRSS6 (11731388_a_at) / Fold change /veh TMPRSS6 (11731388_a_at) / RFU KRTAP10-2 (11738614_at) / Fold change /veh KRTAP10-2 (11738614_at) / RFU ARHGAP8 /// PRR5-ARHGAP8 (11727945_x_at) / Fold change /veh ARHGAP8 /// PRR5-ARHGAP8 (11727945_x_at) / RFU KRTAP5-7 /// NADSYN1 (11734609_at) / Fold change /veh KRTAP5-7 /// NADSYN1 (11734609_at) / RFU RASL12 (11751679_a_at) / Fold change /veh RASL12 (11751679_a_at) / RFU CDKN2B (11736163_a_at) / Fold change /veh CDKN2B (11736163_a_at) / RFU PRF1 (11729649_at) / Fold change /veh PRF1 (11729649_at) / RFU, ZNF638 /// ZNF638-IT1 / Fold change vs veh, ZNF638 /// ZNF638-IT1 / RFU, PANK3 / Fold change vs veh, PANK3 / RFU, SH3YL1 / Fold change vs veh, SH3YL1 / RFU, ZEB2 / Fold change vs veh, ZEB2 / RFU, NRIP1 / Fold change vs veh, NRIP1 / RFU, PTTG1IP / Fold change vs veh, PTTG1IP / RFU, CAPN2 / Fold change vs veh, CAPN2 / RFU, MED14 / Fold change vs veh, MED14 / RFU, SNORA58 / Fold change vs veh, SNORA58 / RFU, C1orf63 / Fold change vs veh, C1orf63 / RFU, LRRFIP1 / Fold change vs veh, LRRFIP1 / RFU, NDUFAF7 / Fold change vs veh, NDUFAF7 / RFU, SLC12A2 / Fold change vs veh, SLC12A2 / RFU, IBTK / Fold change vs veh, IBTK / RFU, ESF1 / Fold change vs veh, ESF1 / Fold change vs veh, TMEM50B / RFU, TAOK1 / Fold change vs veh, TAOK1 / RFU, ACBD3 / Fold change vs veh, ACBD3 / RFU, TMA16 / Fold change vs veh, TMA16 / RFU, RWDD3 / Fold change vs veh, RWDD3 / RFU, BCAT1 / Fold change vs veh, BCAT1 / RFU, EDEM3 / Fold change vs veh, EDEM3 / RFU, TMEM33 / Fold change vs veh, TMEM33 / RFU, WDR75 / Fold change vs veh, WDR75 / RFU, AHCTF1 / Fold change vs veh, AHCTF1 / RFU, TFRC / Fold change vs veh, TFRC / RFU, ZDHHC17 / Fold change vs veh, ZDHHC17 / RFU, NOM1 / Fold change vs veh, NOM1 / RFU, ARL8B / Fold change vs veh, ARL8B / RFU, ZBTB11 / Fold change vs veh, ZBTB11 / RFU, TAMM41 / Fold change vs veh, TAMM41 / RFU, KIAA1704 /// LOC100996395 / Fold change vs veh, KIAA1704 /// LOC100996395 / RFU, ING1 / Fold change vs veh, ING1 / RFU, TRMT61B / Fold change vs veh, TRMT61B / RFU, FUBP3 / Fold change vs veh, FUBP3 / RFU, TP53 / Fold change vs veh, TP53 / RFU, TNKS2 / Fold change vs veh, TNKS2 / RFU, ZFP14 / Fold change vs veh, ZFP14 / RFU, ACTR2 / Fold change vs veh, ACTR2 / RFU, PPP3R1 / Fold change vs veh, PPP3R1 / RFU, PIK3R1 / Fold change vs veh, PIK3R1 / RFU, HNRNPA1 / Fold change vs veh, HNRNPA1 / RFU, RNF170 / Fold change vs veh, RNF170 / RFU, ZNF28 / Fold change vs veh, ZNF28 / RFU, RNGTT / Fold change vs veh, RNGTT / RFU, OGT / Fold change vs veh, OGT / RFU, BRD1 / Fold change vs veh, BRD1 / RFU, MARS / Fold change vs veh, MARS / RFU, ZNF655 / Fold change vs veh, ZNF655 / RFU, FAHD1 / Fold change vs veh, FAHD1 / RFU, BDP1 / Fold change vs veh, BDP1 / RFU, LRRCC1 / Fold change vs veh, LRRCC1 / RFU, ARID1A / Fold change vs veh, ARID1A / RFU, ZNF146 / Fold change vs veh, ZNF146 / RFU, ZNF330 / Fold change vs veh, ZNF330 / RFU, GPN3 / Fold change vs veh, GPN3 / RFU, C9orf123 / Fold change vs veh, C9orf123 / RFU, N4BP2L2 / Fold change vs veh, N4BP2L2 / RFU, ARFIP1 / Fold change vs veh, ARFIP1 / RFU, FAM179B / Fold change vs veh, FAM179B / RFU, BCL10 / Fold change vs veh, BCL10 / RFU, UHRF1BP1L / Fold change vs veh, UHRF1BP1L / RFU, BET1 / Fold change vs veh, BET1 / RFU, CNOT2 / Fold change vs veh, CNOT2 / RFU, ZNF268 / Fold change vs veh, ZNF268 / Fold change vs veh, ZNF507 / RFU, DGCR2 / Fold change vs veh, DGCR2 / RFU, WDSUB1 / Fold change vs veh, WDSUB1 / Fold change vs veh, HSP90B1 /// MIR3652 / RFU, ADSS / Fold change vs veh, ADSS / RFU, GK / Fold change vs veh, GK / RFU, ZNF148 / Fold change vs veh, ZNF148 / RFU, TAF9 / Fold change vs veh, TAF9 / RFU, SLC1A5 / Fold change vs veh, SLC1A5 / RFU, SLMO2 / Fold change vs veh, SLMO2 / RFU, ABCC4 / Fold change vs veh, ABCC4 / RFU, LOC101060439 /// RAP1B / Fold change vs veh, LOC101060439 /// RAP1B / RFU, RFX7 / Fold change vs veh, RFX7 / RFU, GTPBP10 / Fold change vs veh, GTPBP10 / RFU, CNEP1R1 / Fold change vs veh, CNEP1R1 / RFU, BIVM-ERCC5 /// ERCC5 / Fold change vs veh, BIVM-ERCC5 /// ERCC5 / RFU, ILF3 / Fold change vs veh, ILF3 / RFU 11762660_at / Fold change /veh 11762660_at / RFU VCAN (11757783_s_at) / Fold change /veh VCAN (11757783_s_at) / RFU DDX43 (11728927_at) / Fold change /veh DDX43 (11728927_at) / RFU KRT8 (11758188_x_at) / Fold change /veh KRT8 (11758188_x_at) / RFU NKD1 (11759106_at) / Fold change /veh NKD1 (11759106_at) / RFU SRD5A1 (11742802_a_at) / Fold change /veh SRD5A1 (11742802_a_at) / RFU TPSAB1 /// TPSB2 (11721975_s_at) / Fold change /veh TPSAB1 /// TPSB2 (11721975_s_at) / RFU GSTM3 (11746129_a_at) / Fold change /veh GSTM3 (11746129_a_at) / RFU IL23R (11737362_x_at) / Fold change /veh IL23R (11737362_x_at) / RFU TMEM51 (11727254_a_at) / Fold change /veh TMEM51 (11727254_a_at) / RFU PIWIL2 (11732686_x_at) / Fold change /veh PIWIL2 (11732686_x_at) / RFU ORM1 (11744905_x_at) / Fold change /veh ORM1 (11744905_x_at) / RFU CCDC152 (11743942_at) / Fold change /veh CCDC152 (11743942_at) / RFU ECM1 (11717891_a_at) / Fold change /veh ECM1 (11717891_a_at) / RFU IL23R (11748794_a_at) / Fold change /veh IL23R (11748794_a_at) / RFU TNFAIP8L3 (11732012_x_at) / Fold change /veh TNFAIP8L3 (11732012_x_at) / RFU MBOAT4 (11741988_at) / Fold change /veh MBOAT4 (11741988_at) / RFU 11764193_at / Fold change /veh 11764193_at / RFU TMEM53 (11763286_at) / Fold change /veh TMEM53 (11763286_at) / RFU MAGEB2 (11727129_at) / Fold change /veh MAGEB2 (11727129_at) / RFU TMEM200A (11744735_a_at) / Fold change /veh TMEM200A (11744735_a_at) / RFU CCDC152 (11751479_a_at) / Fold change /veh CCDC152 (11751479_a_at) / RFU FAM211A (11726209_a_at) / Fold change /veh FAM211A (11726209_a_at) / RFU RGS16 (11746705_a_at) / Fold change /veh RGS16 (11746705_a_at) / RFU VCAN (11755009_s_at) / Fold change /veh VCAN (11755009_s_at) / RFU RHOB (11743442_s_at) / Fold change /veh RHOB (11743442_s_at) / RFU RGS16 (11720943_a_at) / Fold change /veh RGS16 (11720943_a_at) / RFU RGS16 (11720944_at) / Fold change /veh RGS16 (11720944_at) / RFU, VPS4B / Fold change vs veh, VPS4B / RFU, CREB1 / Fold change vs veh, CREB1 / RFU, DNAJC13 / Fold change vs veh, DNAJC13 / RFU, GNAQ / Fold change vs veh, GNAQ / RFU, CDK5R1 / Fold change vs veh, CDK5R1 / RFU, ZRANB3 / Fold change vs veh, ZRANB3 / RFU, CUL4A / Fold change vs veh, CUL4A / RFU, CCNY / Fold change vs veh, CCNY / RFU, UFL1 / Fold change vs veh, UFL1 / RFU, COG3 / Fold change vs veh, COG3 / RFU, DIAPH2 / Fold change vs veh, DIAPH2 / RFU, SKA2 / Fold change vs veh, SKA2 / RFU, AFF3 / Fold change vs veh, AFF3 / RFU, LMF1 / Fold change vs veh, LMF1 / RFU, IPO11 / Fold change vs veh, IPO11 / RFU, DFFB / Fold change vs veh, DFFB / RFU, FOXP1 / Fold change vs veh, FOXP1 / RFU, CARD8 / Fold change vs veh, CARD8 / RFU, STRN3 / Fold change vs veh, STRN3 / RFU, ADK / Fold change vs veh, ADK / RFU, RASSF2 / Fold change vs veh, RASSF2 / RFU, WIPF1 / Fold change vs veh, WIPF1 / RFU, LARP1B / Fold change vs veh, LARP1B / RFU, RASA1 / Fold change vs veh, RASA1 / RFU, RB1 / Fold change vs veh, RB1 / RFU, PPFIA1 / Fold change vs veh, PPFIA1 / RFU, MAT2A / Fold change vs veh, MAT2A / RFU, CCT5 / Fold change vs veh, CCT5 / RFU, WDR92 / Fold change vs veh, WDR92 / RFU, CUX1 / Fold change vs veh, CUX1 / RFU, TTC7A / Fold change vs veh, TTC7A / RFU, TMEM135 / Fold change vs veh, TMEM135 / RFU, DEPTOR / Fold change vs veh, DEPTOR / RFU, CPM / Fold change vs veh, CPM / RFU, DNAJB6 / Fold change vs veh, DNAJB6 / RFU, CACNA2D3 / Fold change vs veh, CACNA2D3 / RFU, DTX4 / Fold change vs veh, DTX4 / RFU, TFCP2 / Fold change vs veh, TFCP2 / RFU, GMCL1 /// GMCL1P1 / Fold change vs veh, GMCL1 /// GMCL1P1 / RFU, AEBP2 / Fold change vs veh, AEBP2 / RFU, SNHG1 /// SNORD22 /// SNORD25 /// SNORD26 /// SNORD27 /// SNORD28 /// SNORD29 /// SNORD31 / Fold change vs veh, SNHG1 /// SNORD22 /// SNORD25 /// SNORD26 /// SNORD27 /// SNORD28 /// SNORD29 /// SNORD31 / Fold change (Aza/veh), C12orf56 (ProbeSet 11735607_a_at) / Fold change (ACY-1035/veh), C12orf56 (ProbeSet 11735607_a_at) / Fold change (Aza/veh), FGFR1OP (ProbeSet 11751329_s_at) / Fold change (ACY-1035/veh), FGFR1OP (ProbeSet 11751329_s_at) / Fold change (Aza/veh), VPS36 (ProbeSet 11739960_a_at) / Fold change (ACY-1035/veh), VPS36 (ProbeSet 11739960_a_at) / RFU SYPL1 (11715823_x_at) / Fold change /veh SYPL1 (11715823_x_at) / RFU IGFBP7 (11715501_s_at) / Fold change /veh IGFBP7 (11715501_s_at) / RFU REEP3 (11722064_at) / Fold change /veh REEP3 (11722064_at) / RFU IGLL1 (11728026_x_at) / Fold change /veh IGLL1 (11728026_x_at): dose or concentration left out as unconfirmed
Conditions: ProbeSet 11758440_s_at; LIST B

**Q.** Which “RFU, RFX7” value does the source give for `Nc1ncn([C@@H]2O[C@H](CO)[C@@H](O)[C@H]2O)c(=O)n1` [azacitidine] here?
**A.** Its value is 45.74 RFU.

Reference: PMC5218480 (PLoS ONE, 2017)
